From PubChem BioAssay (NCI)
Several values for one entry are separate records, joined by “and”; a condition that tells them apart may be missing. Identical values can stand only once.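 These data come from cells grown in 96-well plates and exposed to compound for 48 hours at five concentrations. GI50: concentration for 50% inhibition of growth. TGI: concentration producing complete growth inhibition.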

Key:
Assay in all cases: NCI tumour cell line growth inhibition, 48 h
[1] = system: TK-10 renal
[2] = system: NCI-H226 lung
[3] = system: OVCAR-4 ovarian
[4] = system: LOX IMVI melanoma
[5] = system: COLO 205 colon
[6] = system: HOP-62 NSCLC
[7] = system: SF-268 CNS
[8] = system: HS 578T breast
[9] = system: NCI/ADR-RES ovarian
[10] = system: RXF 393 renal

| Structure (SMILES) | GI50 [1] | TGI [1] | GI50 [2] | TGI [2] | GI50 [3] | TGI [3] [µM] | GI50 [4] | TGI [4] | GI50 [5] | TGI [5] | GI50 [6] | TGI [6] | GI50 [7] | TGI [7] | GI50 [8] | TGI [8] | GI50 [9] | TGI [9] | GI50 [10] | TGI [10] [µM] |
| --- | --- | --- | --- | --- | --- | --- | --- | --- | --- | --- | --- | --- | --- | --- | --- | --- | --- | --- | --- | --- |
| COc1ccc(NC(=O)c2sc3nc(C)c(C(=O)/C=C/c4cccc(OC)c4)cc3c2N)cc1 | 1.91 µM | 15.3 µM | 1.89 µM | 10.3 µM | 4.01 µM | 17.8 | 0.906 µM | 1.71 µM | 2 µM | 10.9 µM | 1.29 µM | 3.47 µM | 2.07 µM | 14.1 µM | 4.5 µM | > 50 µM | 1.59 µM | > 50 µM | 0.916 µM | 1.84 |
| COc1ccc(/C=C2\SC(=Nc3ccccc3)NC2=O)cc1 | 41.4 µM | > 100 µM | 13.8 µM | > 100 µM | 10 µM | 25.7 | 5.5 µM | 19.6 µM | 4.68 µM | 27.9 µM | 7.06 µM | 26.1 µM | 8.18 µM | 88.3 µM | 4.32 µM | 40.7 µM | 4.61 µM | > 100 µM | 4.68 µM | 26.8 |
| O=C(C#Cc1ccccc1)C1=Cc2ccccc2OC1 | – | 3.58 µM | – | 8.36 µM | – | 8.9 | – | 6.32 µM | – | 3.93 µM | – | 29.3 µM | – | 12.5 µM | – | 23.8 µM | – | 14.4 µM | – | 9.78 |
| O=C1C(=O)c2ccccc2C(O)=C1CCCc1ccc(C2CCCCC2)cc1 | 23.4 µM | > 100 µM | 5.42 µM | 27.6 µM | 3.23 µM | > 100 | 1.15 µM | 12 µM | 7.02 µM | 34.8 µM | 7.2 µM | 23 µM | 3.8 µM | 49.6 µM | 8.59 µM | 56.9 µM | 5.66 µM | 76.5 µM | 11.5 µM | 26.8 |
| CC(C)c1cccc(O)c(=O)c1 | 17.3 µg/mL | > 75 µg/mL and > 100 µM | – | 50.1 µM | – | > 100 | 1.94 µg/mL | > 75 µg/mL and > 100 µM | 1.21 µg/mL | – | 5.57 µg/mL | > 75 µg/mL and > 100 µM | 1.55 µg/mL | 23.6 µg/mL and > 61.6 µM | 1.98 µg/mL | 38.6 µg/mL | 4.5 µg/mL | > 75 µg/mL | 0.116 µg/mL | – |
| CC(C)=CC(=O)N[C@H]1CC[C@]2(C)C3CC[C@]4(C)C(C(C)N(C)C)=CCC4C3CCC2[C@H]1O (stereo partly drawn) | 11 µM | 26.3 µM | 8.49 µM | 25.7 µM | 5.88 µM | 20.8 | 1.62 µM | 3.49 µM | 1.69 µM | 3.3 µM | 2.61 µM | 7.49 µM | 2.35 µM | 6.63 µM | 4.25 µM | 18.8 µM | 10.3 µM | 25.5 µM | 2.7 µM | 9.74 |
| O=C(c1ccco1)c1c(C(F)(F)F)n([O-])c2cc(C(F)(F)F)ccc2[n+]1=O | 1.57 µM | 3.1 µM | 1.77 µM | 3.58 µM | 1.35 µM | 3.94 | 0.299 µM | 0.73 µM | 0.475 µM | 2 µM | 0.484 µM | 1.08 µM | 0.87 µM | 2.66 µM | 1.36 µM | – | 0.801 µM | 4.33 µM | 0.43 µM | 0.929 |
| CC1(C)OC(=O)C(C#N)=C1C[n+]1ccccc1 | – | > 10 µM | – | > 10 µM | – | > 10 | – | > 10 µM | – | > 10 µM | – | > 10 µM | – | > 10 µM | – | > 10 µM | – | > 10 µM | – | > 10 |
| ClCc1ccccc1Cn1cnc2c(Cl)ncnc21 | 23.1 µM | 46.7 µM | 4.59 µM | 12.5 µM | 3.39 µM | 12.2 | 2.14 µM | 5.21 µM | 3.89 µM | > 100 µM | 2.52 µM | 6.03 µM | 3.24 µM | 10.9 µM | 2.28 µM | 6.67 µM | 2.21 µM | 4.72 µM | 0.442 µM | 2.32 |
| COC1=CC(c2ccc[nH]2)=N/C1=C\c1[nH]c(C)c(CC(=O)OCc2ccccc2)c1C | 0.351 µM | 2.11 µM | 0.33 µM | 2.31 µM | 0.256 µM | 5.17 | 0.214 µM | 0.753 µM | 0.24 µM | 1.27 µM | 0.374 µM | 2.27 µM | 0.358 µM | 2.56 µM | 0.362 µM | 2.26 µM | 0.444 µM | 1.97 µM | 0.43 µM | 2.07 |
| COC(=O)Nc1nc2ccc(C(=O)c3ccccc3)cc2[nH]1 | – | > 100 µM | 1.05 µM and 0.441 µM | 28.9 µM and > 100 µM | 3.88 µM and 3.13 µM | > 100 | 0.625 µM and 0.87 µM | > 100 µM | 0.331 µM and 0.274 µM | 1.12 µM and 3.74 µM | 0.61 µM and 3.19 µM | > 100 µM | 1.76 µM and 0.535 µM | > 100 µM | 0.518 µM and 0.2 µM | > 100 µM | 0.346 µM and 0.357 µM | – | 0.368 µM | 2.19 |
| C=C1C(=O)O[C@H]2[C@H]1CC/C(COC(=O)CCCc1c[nH]c3ccccc13)=C\CC[C@@]1(C)O[C@@H]21 | 1.64 µM | 3.07 µM | 2.04 µM | 4.38 µM | 1.66 µM | 3.28 | 1.55 µM | 2.95 µM | 1.86 µM | 3.79 µM | 6.54 µM | 19.6 µM | 1.69 µM | 3.46 µM | 3.19 µM | 20.9 µM | 2.9 µM | 10.9 µM | 1.46 µM | 2.85 |
| C=C1C(=O)O[C@H]2[C@H]1CC/C(Cn1cc(-c3ccc(F)cc3)nn1)=C\CC[C@@]1(C)O[C@@H]21 | 1.24 µM | 2.53 µM | 2.48 µM | 6.74 µM | 1.29 µM | 3.03 | 0.901 µM | 2.22 µM | 0.459 µM | 1.67 µM | 3.04 µM | 12.1 µM | 1.69 µM | 3.4 µM | 3.68 µM | 22.6 µM | 3.05 µM | 14 µM | 0.874 µM | 2.13 |
